Test results as given in patent US20020182736A1, “Methods to measure lipid antioxidant activity” (TRUSTEES OF TUFTS COLLEGE, priority 2001, published 2002).
pIC50: −log10 of the molar value. Where “and” joins values, the source holds several entries; their conditions need not be identical. Equal entries are not always repeated. Entries after “also recorded” stand apart in the source; their conditions may differ.

What was measured:
[1] = test system: aqueous plasma compartment oxidation; assay: Aqueous plasma compartment oxidation, DCFH to DCF fluorescence; parameters: species or system human; conditions: for protective effect on aqueous compartment oxidation: 180 min of incubation
Experimental: The final plasma dilution was 1:5 (v/v).
DCFH was prepared from DCFH-DA by basic hydrolysis. Briefly 500 μl of DCFH-DA stock solution (1 mM) was mixed with 2 ml of NaOH (0.01 N at 4° C.) for 20 minutes while protected from the light. The mixture was then neutralized with 2 ml of HCl (0.01 N), diluted with PBS to a final concentration of 10 μM and stored in ice for no longer than 8 hrs (working solution); an aliquot of 100 μl was added to 200 μl of plasma and then diluted to a final volume of 1 ml with PBS. […] The excitation wavelength (λex) was set at […] (slit 5 nm) and emission (λem) at 520 nm (slit 5 nm).
Values are mean±SD of five independent experiments. […] Samples were incubated at 37° C. in the dark and at fixed times the DCF content measured by fluorescence (λex=502 nm, λem=520 nm).

[2] = test system: lipid plasma compartment oxidation; assay: Lipid plasma compartment oxidation, BODIPY 581/591 green fluorescence
Experimental: Plasma oxidation was measured fluorometrically using two different fluorescent probes: DCFH and BODIPY. DCFH-DA and BODIPY stock solutions were prepared in EtOH and dimethylsulfoxide, respectively, stored under nitrogen at −20° C. and used within two months. The final plasma dilution was 1:5 (v/v).
In the experiments using β-carotene, to avoid the filtering effect due to the carotenoid, the oxidation product of BODIPY was also detected at λex=520 and at λem-540 nm. The fluorescence measurements were carried out using a Perkin Elmer spectrofluorometer (model 650-10s) with 1 cm path length fluorescence cuvettes.
Briefly, β-carotene (dissolved in stabilized THF, 10 mg/ml) or α-tocopherol (4.3 mg/ml in EtOH) were added to plasma to reach a final concentration of 50 μM; the samples were then vortexed for 30 sec and incubated at 37±1° C. for 1 to 6 hr under nitrogen. […] Controls were prepared in the same way using solvent only.
The effect of adding the membrane soluble antioxidants, α-tocopherol (in EtOH) and β-carotene (in THF), pre-incubated with plasma, was studied. […] Values are mean±SD of five independent experiments. Statistical analysis: one-way ANOVA with Tukey's post test; *p<0.05, **p<0.01.
To monitor the aqueous phase oxidizability, AAPH was used as a hydrophilic radical generator and coupled to DCFH was used as the indicator.

[3] = 37° C; cited from earlier work
[4] = test system: aqueous peroxyl radicals generated by AAPH in human plasma; assay: Consumption of endogenous plasma antioxidants induced by AAPH (HPLC); conditions: for Residual Amount (%) of Cryptoxanthin / Residual Amount (%) of Lutein / Residual Amount (%) of Lycopene / Residual Amount (%) of Zeaxanthin / Residual Amount (%) of β-Carotene: AAPH 20 mM for 120 min
Experimental: In a second similar experiment, other antioxidants were studied. […] Echinenone in ethanol was added as an internal standard.

[5] = ESR quenching of α-tocopheroxyl radical generated from α-tocopherol and DPPH; format: biochemical
Experimental: α-TOC+DPPH→α-TOC-O.+DPPHH [1]
For sample preparation, α-tocopherol (900 μM) and DPPH (600 μM) in ethanol solution were mixed for 20 sec and 50 μl of the reaction mixture transferred into a capillary ESR tube. (−)-Epigallocatechin-(3)-gallate (EGCG) was added to the mixture immediately after DPPH decolorization (30 sec after DPPH addition).

[6] = cited from earlier work
[7] = test system: lipid peroxyl radicals generated by MeO-AMVN in human plasma; assay: Consumption of endogenous plasma antioxidants induced by MeO-AMVN (HPLC); conditions: for Residual Amount (%) of Cryptoxanthin / Residual Amount (%) of Lutein / Residual Amount (%) of Lycopene / Residual Amount (%) of Zeaxanthin / Residual Amount (%) of β-Carotene: MeO-AMVN 2 mM for 60 min
Experimental: After an overnight fast (10-12 h), blood from two healthy donors was collected in ethylenediaminetetraacetic acid (EDTA)-containing tubes. In order to reduce the variability of different donors, blood samples from these two subjects were collected weekly for the duration of the experiment. Immediately after collection, the samples were placed on ice and protected from light. Plasma was obtained by centrifugation at 800 g for 20 min at 4° C. and immediately used for the in vitro studies.
In the presence of 10-20 mM of AAPH, the flux of aqueous radicals calculated on the basis of the known rate of free radical generation from AAPH at 37° C.
In order to obtain homogeneous incorporation, the lipid soluble initiators were added slowly to the samples with a micro-syringe (10 μl) with stirring. The samples were then vortexed for 10 sec and incubated at 37±1° C. under aerobic conditions.
In a second similar experiment, other antioxidants were studied. […] A 100 μl aliquot of the reaction mixture was extracted for β-carotene and α-tocopherol analysis. Echinenone in ethanol was added as an internal standard. The mixture was extracted with CHCl3:CH3OH (2:1 v/v) containing 0.2% BHT and hexane containing 0.1% BHT, dried under nitrogen, redissolved in ethanol, and injected into an HPLC system with a C30 column (3 μm, 150×4.6 mm, YMC, Wilmington, N.C.).
For water-soluble antioxidant measurement, the mixtures were immediately deproteinized with perchloric acid (250 mM).
Results are expressed as percentages with respect to control samples prepared without the azo-compounds.

CC(C)(N=NC(C)(C)C(=N)N)C(=N)N.Cl.Cl [AAPH, 2,2′-azobis (2-amidinopropane) dihydrochloride]
start of propagation phase of DCFH oxidation in plasma ([1]; 10 mM AAPH): 180 min | start of propagation phase / lag phase of DCFH oxidation in plasma ([1]; 20 mM AAPH, dihydrochloride): 90 min and 120 min | delay of BODIPY oxidation in plasma ([2]; 20 mM AAPH): 180 min | rate of free radical generation Ri [3]: 1.36×10^−6 [AAPH] mol/liter/sec

O=C(O[C@@H]1Cc2c(O)cc(O)cc2O[C@@H]1c1cc(O)c(O)c(O)c1)c1cc(O)c(O)c(O)c1 [EGCG, (−)-Epigallocatechin-(3)-gallate]
Residual Amount (%) of Cryptoxanthin ([4]; EGCG 0.5 μM): 28.46 ± 3.35% | Residual Amount (%) of Lutein ([4]; EGCG 0.5 μM): 26.05 ± 4.26% | Residual Amount (%) of Lycopene ([4]; EGCG 0.5 μM): 9.35 ± 5.18% | Residual Amount (%) of Zeaxanthin ([4]; EGCG 0.5 μM): 25.61 ± 6.53% | Residual Amount (%) of β-Carotene ([4]; EGCG 0.5 μM): 41.51 ± 6.64% | Residual Amount (%) of Cryptoxanthin ([4]; EGCG 1 μM): 36.21 ± 1.71 % | Residual Amount (%) of Lutein ([4]; EGCG 1 μM): 40.64 ± 5.30 % | Residual Amount (%) of Lycopene ([4]; EGCG 1 μM): 18.06 ± 2.44% | Residual Amount (%) of Zeaxanthin ([4]; EGCG 1 μM): 48.78 ± 4.81 % | Residual Amount (%) of β-Carotene ([4]; EGCG 1 μM): 54.38 ± 4.86 % | Residual Amount (%) of Cryptoxanthin ([4]; EGCG 5 μM): 48.88 ± 2.08 % | Residual Amount (%) of Lutein ([4]; EGCG 5 μM): 56.05 ± 4.42 % | Residual Amount (%) of Lycopene ([4]; EGCG 5 μM): 25.26 ± 1.02 % | Residual Amount (%) of Zeaxanthin ([4]; EGCG 5 μM): 58.89 ± 5.10 % | Residual Amount (%) of β-Carotene ([4]; EGCG 5 μM): 58.63 ± 3.30 % | Residual Amount (%) of Cryptoxanthin ([4]; EGCG 10 μM): 56.45 ± 5.00 % | Residual Amount (%) of Lutein ([4]; EGCG 10 μM): 63.13 ± 8.15 % | Residual Amount (%) of Lycopene ([4]; EGCG 10 μM): 32.30 ± 4.24 % | Residual Amount (%) of Zeaxanthin ([4]; EGCG 10 μM): 62.36 ± 11.92 % | Residual Amount (%) of β-Carotene ([4]; EGCG 10 μM): 64.35 ± 6.37 % | effect on consumption of ascorbic acid and uric acid ([4]; EGCG 0.5-10 μM, 20 mM AAPH): ineffective | concentration at which activity starts, aqueous compartment ([1]; AAPH 20 mM, 180 min): 0.25 µM | pIC50 ([1]; AAPH 20 mM, after 180 min of incubation): 6.14 | protective effect on aqueous compartment oxidation ([1]; EGCG 10 μM, AAPH 20 mM): 93.02±2.02% | protective effect on aqueous compartment oxidation ([1]; EGCG 0.25 AM, AAPH 20 mM): 20.25±0.34% | antioxidant efficiency in the aqueous in respect to the lipid domain ([1]; from IC50 after 180 min): six times greater | protective effect on lipid compartment oxidation ([2]; EGCG 0.5 μM, MeO-AMVN 2 mM, 180 min of incubation): 13.01±0.56% | protection of lipid compartment oxidation ([2]; EGCG 10 μM, MeO-AMVN 2 mM, 180 min of incubation): 68±2.3% | lowest / starting effective concentration, lipid compartment ([2]; MeO-AMVN 2 mM, 180 min): 0.5 µM and 0.5 to 1 µM | pIC50 ([2]; read-out: IC50 in lipid compartment, MeO-AMVN 2 mM, after 180 min of incubation): 5.36 | pIC50 ([5]; 60 sec after the beginning of the reaction, read-out: IC50 quenching of α-TOC-O. ESR signal): 4.92 | % inhibition of ESR signal ([5]; EGCG 2 μM, 60 sec after the beginning of the reaction): 8±1.3% | quenching effect on ESR signal ([5]; EGCG 25 μM): almost complete disappearance | redox potential E ([6]; E(EGCG-O., H+/EGCG-OH), E(A−., H+/AH−)): 0.48 V | ΔE to reduce tocopheroxyl radical ([6]; physiological pH): 0.06 V | Residual Amount (%) of Cryptoxanthin ([7]; EGCG 0.5 μM): 54.38 ± 2.74% | Residual Amount (%) of Lutein ([7]; EGCG 0.5 μM): 32.57 ± 4.14% | Residual Amount (%) of Lycopene ([7]; EGCG 0.5 μM): 20.15 ± 3.22% | Residual Amount (%) of Zeaxanthin ([7]; EGCG 0.5 μM): 47.69 ± 5.85% | Residual Amount (%) of β-Carotene ([7]; EGCG 0.5 μM): 51.95 ± 1.68% | Residual Amount (%) of Cryptoxanthin ([7]; EGCG 1 μM): 52.36 ± 0.79% | Residual Amount (%) of Lutein ([7]; EGCG 1 μM): 33.75 ± 3.94% | Residual Amount (%) of Lycopene ([7]; EGCG 1 μM): 19.76 ± 2.62% | Residual Amount (%) of Zeaxanthin ([7]; EGCG 1 μM): 49.64 ± 2.14% | Residual Amount (%) of β-Carotene ([7]; EGCG 1 μM): 50.15 ± 3.35% | Residual Amount (%) of Cryptoxanthin ([7]; EGCG 5 μM): 45.16 ± 3.09% | Residual Amount (%) of Lutein ([7]; EGCG 5 μM): 44.64 ± 5.50% | Residual Amount (%) of Lycopene ([7]; EGCG 5 μM): 23.56 ± 1.78% | Residual Amount (%) of Zeaxanthin ([7]; EGCG 5 μM): 44.31 ± 0.94% | Residual Amount (%) of β-Carotene ([7]; EGCG 5 μM): 57.73 ± 0.54% | % α-tocopherol remaining ([7]; EGCG 10 μM, MeO-AMVN): 96.71±1.46% | Residual Amount (%) of Cryptoxanthin ([7]; EGCG 10 μM): 41.84 ± 1.60% | Residual Amount (%) of Lutein ([7]; EGCG 10 μM): 40.36 ± 4.03% | Residual Amount (%) of Lycopene ([7]; EGCG 10 μM): 26.72 ± 0.94% | Residual Amount (%) of Zeaxanthin ([7]; EGCG 10 μM): 42.67 ± 2.04% | Residual Amount (%) of β-Carotene ([7]; EGCG 10 μM): 59.13 ± 3.72% | sparing of carotenoids depletion ([7]; EGCG 0.5-10 μM, MeO-AMVN): ineffective; also recorded: failed to prevent
